Structures are written as SMILES. pIC50, pKi: −log10 of the molar value. Like-named read-outs stand apart in the source and are kept apart here.

In one experiment the target is T1, CCK1 (CCKA) (h) (Homo sapiens, UniProt P32238).
T1 construct: Cerep
T1 sequence (P32238 1-428): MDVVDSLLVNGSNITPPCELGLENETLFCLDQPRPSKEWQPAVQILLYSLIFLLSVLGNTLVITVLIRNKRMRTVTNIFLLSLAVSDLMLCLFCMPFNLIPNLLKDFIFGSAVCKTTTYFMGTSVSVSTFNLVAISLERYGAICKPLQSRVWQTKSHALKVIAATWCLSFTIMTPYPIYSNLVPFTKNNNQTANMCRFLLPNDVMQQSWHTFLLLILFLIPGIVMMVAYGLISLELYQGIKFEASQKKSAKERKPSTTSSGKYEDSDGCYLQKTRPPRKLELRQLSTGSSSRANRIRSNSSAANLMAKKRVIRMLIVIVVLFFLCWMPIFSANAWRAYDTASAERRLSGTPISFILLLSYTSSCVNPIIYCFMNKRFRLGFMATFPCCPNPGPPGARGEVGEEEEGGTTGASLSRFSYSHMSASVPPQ
In words: Cerep binding, agonist radioligand (CCK-8S). Conditions: for inhibition at 10 µM: read-out: % inhibition of control specific binding. From the text: (§1) In addition to the HDAC profiling performed, we also queried 4b for any apparent potential off-target effects, which could complicate any finding of efficacy or adverse events in vivo due to ‘polypharmacy’. This was accomplished by screening against a ‘diversity panel’ of 72 binding and 29 enzyme assays, comprised of roughly equal numbers of selective central and peripheral therapeutically relevant targets (Cerep Diversity Profile). This panel included representative targets from diverse enzyme families, G protein coupled receptors, steroid nuclear receptors, voltage- and ligand-gated ion channels. While not totally inclusive, it is a useful tool for discovery compounds to assess their viability as proof of concept molecules to specifically query a particular target. 4b was initially screened at 10 µM in duplicate. The full set of results is provided as Table S1. […] This clean in vitro profile was considered acceptable to proceed to ADME and pharmacokinetic studies.
Supplementary file pone.0044498.s001.tif: Figure S1 Displacement of CCK-8S (agonist radioligand) from the CCK1 receptor by 4b and C1. (TIF) Click here for additional data file.

The next experiment has as its target T2, CysLT1 (LTD4) (h) (Homo sapiens, UniProt Q9Y271).
T2 construct: purchased Cerep (Diversity Profile)
In words: Cerep binding, agonist radioligand. The settings on record: read-out: % inhibition of control specific binding.
Description: as §1

In another experiment the target is T3, TRH1 (h) (Homo sapiens, UniProt P34981).
T3 construct: purchased Cerep (Diversity Profile)
T3 sequence (P34981 whole entry): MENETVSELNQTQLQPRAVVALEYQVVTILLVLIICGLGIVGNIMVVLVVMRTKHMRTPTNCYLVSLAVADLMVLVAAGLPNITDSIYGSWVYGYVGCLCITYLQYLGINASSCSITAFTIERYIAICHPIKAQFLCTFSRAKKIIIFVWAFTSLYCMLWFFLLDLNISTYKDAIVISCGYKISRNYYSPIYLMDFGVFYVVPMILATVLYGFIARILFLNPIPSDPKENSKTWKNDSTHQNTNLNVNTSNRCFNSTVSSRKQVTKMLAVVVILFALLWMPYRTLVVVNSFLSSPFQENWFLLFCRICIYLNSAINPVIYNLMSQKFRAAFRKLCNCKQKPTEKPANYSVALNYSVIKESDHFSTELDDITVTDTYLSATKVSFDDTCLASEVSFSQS
In words: Cerep binding, agonist radioligand. Conditions: read-out: % inhibition of control specific binding.
Description: as §1

The target of another experiment is T4, 2 (h) (Homo sapiens, UniProt P07550).
T4 construct: purchased Cerep (Diversity Profile)
T4 sequence (P07550 whole entry): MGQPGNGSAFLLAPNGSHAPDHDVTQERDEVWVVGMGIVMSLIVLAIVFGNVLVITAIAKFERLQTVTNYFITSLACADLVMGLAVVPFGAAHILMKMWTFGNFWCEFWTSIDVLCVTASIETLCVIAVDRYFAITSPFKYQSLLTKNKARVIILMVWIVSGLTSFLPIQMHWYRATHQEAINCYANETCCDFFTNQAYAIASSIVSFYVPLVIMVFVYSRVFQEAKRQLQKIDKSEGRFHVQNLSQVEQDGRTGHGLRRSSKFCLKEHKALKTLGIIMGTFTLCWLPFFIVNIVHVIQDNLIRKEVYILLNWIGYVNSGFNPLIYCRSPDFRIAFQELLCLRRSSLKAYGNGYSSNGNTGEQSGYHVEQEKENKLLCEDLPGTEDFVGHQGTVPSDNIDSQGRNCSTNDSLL
The experiment is described as follows: Cerep binding, agonist radioligand. The settings on record: read-out: % inhibition of control specific binding.
Description: as §1

The target of the next experiment is T5, H3 (h) (Homo sapiens, UniProt Q9Y5N1).
T5 construct: purchased Cerep (Diversity Profile)
T5 sequence (Q9Y5N1 whole entry): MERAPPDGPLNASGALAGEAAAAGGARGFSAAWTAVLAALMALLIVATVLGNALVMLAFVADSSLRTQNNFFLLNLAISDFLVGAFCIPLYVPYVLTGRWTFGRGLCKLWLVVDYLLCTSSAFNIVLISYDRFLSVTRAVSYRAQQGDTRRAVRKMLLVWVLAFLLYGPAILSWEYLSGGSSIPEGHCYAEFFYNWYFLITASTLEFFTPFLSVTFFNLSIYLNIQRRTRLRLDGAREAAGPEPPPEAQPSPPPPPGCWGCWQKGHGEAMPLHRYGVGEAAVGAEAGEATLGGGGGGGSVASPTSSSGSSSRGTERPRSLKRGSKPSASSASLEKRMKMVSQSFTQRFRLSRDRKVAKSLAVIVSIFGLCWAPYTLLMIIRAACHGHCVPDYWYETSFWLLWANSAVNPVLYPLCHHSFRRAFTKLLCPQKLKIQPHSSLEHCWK
The experiment is described as follows: Cerep binding, agonist radioligand. The settings on record: read-out: % inhibition of control specific binding.
Description: as §1

In a further experiment the target is T6, NK2 (h) (Homo sapiens, UniProt P21452).
T6 construct: purchased Cerep (Diversity Profile)
T6 sequence (P21452 whole entry): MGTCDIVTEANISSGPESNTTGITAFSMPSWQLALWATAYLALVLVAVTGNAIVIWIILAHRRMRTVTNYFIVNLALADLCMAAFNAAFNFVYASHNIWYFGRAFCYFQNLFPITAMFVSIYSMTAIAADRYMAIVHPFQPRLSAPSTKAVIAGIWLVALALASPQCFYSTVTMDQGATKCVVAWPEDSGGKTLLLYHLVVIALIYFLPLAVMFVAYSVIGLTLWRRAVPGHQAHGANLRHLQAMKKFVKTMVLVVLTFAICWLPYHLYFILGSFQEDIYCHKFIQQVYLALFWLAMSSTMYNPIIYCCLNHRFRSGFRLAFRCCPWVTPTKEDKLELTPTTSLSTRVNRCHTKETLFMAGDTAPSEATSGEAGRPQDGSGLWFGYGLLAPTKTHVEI
In words: Cerep binding, agonist radioligand. Conditions: read-out: % inhibition of control specific binding.
Description: as §1

T2 sequence (Q9Y271 whole entry): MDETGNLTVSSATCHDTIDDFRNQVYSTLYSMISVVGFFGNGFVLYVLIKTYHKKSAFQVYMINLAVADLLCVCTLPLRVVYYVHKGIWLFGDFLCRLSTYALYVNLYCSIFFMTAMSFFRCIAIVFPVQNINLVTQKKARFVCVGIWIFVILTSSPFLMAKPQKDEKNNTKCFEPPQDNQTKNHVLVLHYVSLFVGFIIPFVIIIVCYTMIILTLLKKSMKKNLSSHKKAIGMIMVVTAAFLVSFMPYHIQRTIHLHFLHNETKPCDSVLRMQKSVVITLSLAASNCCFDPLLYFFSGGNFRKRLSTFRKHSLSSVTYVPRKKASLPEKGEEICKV

As a reminder, the inhibition is the percentage by which the read-out fell short of the control. As usually defined, the pKi is the Ki on a negative log10 scale, so that one unit is a factor of ten. Take `Nc1ccccc1NC(=O)CCCCCC(=O)Nc1ccccc1` [Compound 4b]: the inhibition at 10 µM on CCK1 (CCKA) (h) turned out to be 72%; at CysLT1 (LTD4) (h), 0%; at TRH1 (h), 9%; at 2 (h), 2%; on H3 (h), 0%; on NK2 (h), 5%. Besides, at CCK1 (CCKA) (h) (follow up concentration-effect curve), the pKi was 5.07.
As a reminder, the pIC50 is −log10 of the IC50, conventionally taken in molar units. Consider `O=C(CCCCCc1nc2ccccc2[nH]1)Nc1ccccc1` [Compound C1, 6-(1-H-benzo[d]imidazol-2-yl)-N-phenylhexanamide], for which the inhibition at 10 µM is 68% on CCK1 (CCKA) (h); 0% at CysLT1 (LTD4) (h) (10 μM); 1% at TRH1 (h) (10 μM); 2% at 2 (h) (10 μM); 8% at H3 (h) (10 μM); 9% on NK2 (h) (10 μM). The pIC50 on CCK1 (CCKA) (h) (read-out: IC50, displacement of CCK1 agonist radioligand binding) is 5.21.

Values taken from PMC3433414, “Oral Administration of the Pimelic Diphenylamide HDAC Inhibitor HDACi 4b Is Unsuitable for Chronic Inhibition of HDAC Activity in the CNS In Vivo” (PLoS ONE, 2012).
